Assay results reported in ChEMBL document CHEMBL3872258, “Challenges in the development of an M4 PAM in vivo tool compound: The discovery of VU0467154 and unexpected DMPK profiles of close analogs” (Bioorg Med Chem Lett, 2017).
pEC50, pIC50: −log10 of the molar value.

Key:
Cytochrome P450 2D6 = Cytochrome P450 2D6 (Homo sapiens, UniProt P10635); assay: Inhibition of CYP2D6 (unknown origin); type: ADME
[1] = Ratio of unbound concentration in brain to plasma in Sprague-Dawley rat at 1 mg/kg, ip at 0.25 hrs; type: ADME, organism-based
[2] = molecular target: Muscarinic acetylcholine receptor M3 (Homo sapiens, UniProt P20309); assay: Displacement of [3H]-N-Methylscopolamine from human M3 receptor expressed in CHOK1 cells; type: cell-based, CHO-K1
Muscarinic acetylcholine receptor M3, sequence (P20309 whole entry): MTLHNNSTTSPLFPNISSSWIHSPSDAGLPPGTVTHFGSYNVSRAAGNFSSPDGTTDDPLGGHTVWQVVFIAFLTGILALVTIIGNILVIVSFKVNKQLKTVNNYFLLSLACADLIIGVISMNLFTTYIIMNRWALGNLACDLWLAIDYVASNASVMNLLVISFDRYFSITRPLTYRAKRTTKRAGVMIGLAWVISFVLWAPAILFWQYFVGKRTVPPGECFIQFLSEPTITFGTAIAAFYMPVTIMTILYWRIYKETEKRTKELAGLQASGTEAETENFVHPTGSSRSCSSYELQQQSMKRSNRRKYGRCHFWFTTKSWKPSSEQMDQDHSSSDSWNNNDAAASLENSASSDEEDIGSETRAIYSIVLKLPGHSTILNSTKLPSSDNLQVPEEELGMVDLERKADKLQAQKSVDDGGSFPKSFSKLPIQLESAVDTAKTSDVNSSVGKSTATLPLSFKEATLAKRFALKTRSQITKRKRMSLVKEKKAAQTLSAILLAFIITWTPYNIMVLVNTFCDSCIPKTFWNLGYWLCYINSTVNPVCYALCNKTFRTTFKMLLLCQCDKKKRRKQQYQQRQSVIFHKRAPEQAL

[3] = Half life in Sprague-Dawley rat at 1 mg/kg, iv; type: ADME, organism-based; conditions: in vivo; for half-life: Sprague-Dawley
[4] = molecular target: T1, Muscarinic acetylcholine receptor M1 (Rattus norvegicus, UniProt P08482); assay: Binding affinity to rat M1 receptor by radio-ligand binding assay
T1 sequence (P08482 whole entry): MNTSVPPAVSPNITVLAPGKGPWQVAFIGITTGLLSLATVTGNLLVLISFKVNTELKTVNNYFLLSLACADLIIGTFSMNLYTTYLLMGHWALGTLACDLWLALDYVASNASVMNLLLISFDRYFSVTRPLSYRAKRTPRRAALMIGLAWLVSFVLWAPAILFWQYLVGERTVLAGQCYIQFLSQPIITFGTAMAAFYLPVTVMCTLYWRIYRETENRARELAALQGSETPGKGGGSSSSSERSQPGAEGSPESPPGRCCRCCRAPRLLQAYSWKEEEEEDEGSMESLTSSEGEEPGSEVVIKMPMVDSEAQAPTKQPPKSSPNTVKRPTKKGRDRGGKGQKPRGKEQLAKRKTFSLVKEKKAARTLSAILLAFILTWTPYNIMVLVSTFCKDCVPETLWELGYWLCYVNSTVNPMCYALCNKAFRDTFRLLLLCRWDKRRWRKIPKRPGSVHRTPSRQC

[5] = Intrinsic clearance in rat; type: ADME
[6] = molecular target: T2, Muscarinic acetylcholine receptor M2 (Rattus norvegicus, UniProt P10980); assay: Binding affinity to rat M2 receptor by radio-ligand binding assay
T2 sequence (P10980 whole entry): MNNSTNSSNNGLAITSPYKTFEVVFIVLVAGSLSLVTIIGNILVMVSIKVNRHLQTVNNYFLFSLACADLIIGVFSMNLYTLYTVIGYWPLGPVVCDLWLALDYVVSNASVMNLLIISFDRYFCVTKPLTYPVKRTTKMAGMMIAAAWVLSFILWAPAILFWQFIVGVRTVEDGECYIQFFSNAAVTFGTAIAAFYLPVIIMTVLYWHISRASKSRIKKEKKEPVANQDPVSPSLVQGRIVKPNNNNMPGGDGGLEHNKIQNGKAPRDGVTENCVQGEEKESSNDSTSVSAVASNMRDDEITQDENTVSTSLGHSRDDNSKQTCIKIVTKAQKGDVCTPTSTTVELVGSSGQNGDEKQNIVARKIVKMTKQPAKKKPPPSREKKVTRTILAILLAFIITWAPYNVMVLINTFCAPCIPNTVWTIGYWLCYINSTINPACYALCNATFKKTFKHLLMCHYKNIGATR

[7] = molecular target: T3, Muscarinic acetylcholine receptor M4 (Homo sapiens) (UniProt P08173); assay: Positive allosteric modulation of human M4 receptor expressed in CHO cells co-expressing Gqui5 by calcium mobilization assay relative to acetylcholine; type: functional, cell-based
T3 sequence (whole entry): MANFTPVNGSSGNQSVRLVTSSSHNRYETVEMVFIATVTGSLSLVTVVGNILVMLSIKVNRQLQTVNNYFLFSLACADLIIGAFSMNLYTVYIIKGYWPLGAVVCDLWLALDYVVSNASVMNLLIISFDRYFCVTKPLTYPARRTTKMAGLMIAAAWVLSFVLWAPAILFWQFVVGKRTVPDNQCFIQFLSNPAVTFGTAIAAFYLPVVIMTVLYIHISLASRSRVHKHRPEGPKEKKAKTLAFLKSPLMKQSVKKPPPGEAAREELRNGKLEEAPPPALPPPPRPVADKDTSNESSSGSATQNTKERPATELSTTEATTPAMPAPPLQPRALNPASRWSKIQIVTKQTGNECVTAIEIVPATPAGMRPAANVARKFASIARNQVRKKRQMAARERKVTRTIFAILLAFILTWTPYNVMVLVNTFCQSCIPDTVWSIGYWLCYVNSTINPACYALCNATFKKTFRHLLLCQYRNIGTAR

[8] = molecular target: T4, Muscarinic acetylcholine receptor M5 (Homo sapiens, UniProt P08912); assay: Binding affinity to human M5 receptor by radio-ligand binding assay
T4 sequence (P08912 whole entry): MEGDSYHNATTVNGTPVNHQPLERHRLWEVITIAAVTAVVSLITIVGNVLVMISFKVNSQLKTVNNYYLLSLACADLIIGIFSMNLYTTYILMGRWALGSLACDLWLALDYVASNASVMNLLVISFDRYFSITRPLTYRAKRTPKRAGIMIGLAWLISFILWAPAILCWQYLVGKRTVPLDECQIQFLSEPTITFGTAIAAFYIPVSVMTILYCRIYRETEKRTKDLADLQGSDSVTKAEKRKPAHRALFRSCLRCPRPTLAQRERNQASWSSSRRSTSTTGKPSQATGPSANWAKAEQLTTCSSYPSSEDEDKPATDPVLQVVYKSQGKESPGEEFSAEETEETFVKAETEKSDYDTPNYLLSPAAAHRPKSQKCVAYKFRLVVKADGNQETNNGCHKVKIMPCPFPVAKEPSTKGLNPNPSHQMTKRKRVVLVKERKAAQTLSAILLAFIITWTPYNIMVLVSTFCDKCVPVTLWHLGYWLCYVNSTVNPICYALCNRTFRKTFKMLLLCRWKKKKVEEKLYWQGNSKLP

Cytochrome P450 2C9 = Cytochrome P450 2C9 (Homo sapiens, UniProt P11712); assay: Inhibition of CYP2C9 (unknown origin); type: ADME
Cytochrome P450 2C9, sequence (P11712 whole entry): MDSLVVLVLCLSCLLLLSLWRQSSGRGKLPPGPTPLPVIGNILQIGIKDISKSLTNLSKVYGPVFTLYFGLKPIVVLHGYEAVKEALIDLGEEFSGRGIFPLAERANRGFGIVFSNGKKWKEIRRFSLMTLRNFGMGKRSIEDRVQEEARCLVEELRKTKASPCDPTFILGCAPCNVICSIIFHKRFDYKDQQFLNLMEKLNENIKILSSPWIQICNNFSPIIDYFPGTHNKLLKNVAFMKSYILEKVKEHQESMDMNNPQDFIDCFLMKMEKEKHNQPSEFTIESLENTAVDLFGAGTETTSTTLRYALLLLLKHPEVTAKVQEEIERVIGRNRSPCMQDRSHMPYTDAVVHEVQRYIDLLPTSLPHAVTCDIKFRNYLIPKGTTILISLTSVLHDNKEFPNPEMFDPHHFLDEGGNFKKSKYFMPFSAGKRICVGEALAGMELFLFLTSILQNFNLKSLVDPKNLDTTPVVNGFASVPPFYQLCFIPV

[9] = Unbound fraction in rat brain; type: ADME, tissue-based; conditions: for fraction unbound: brain
[10] = molecular target: T5, Muscarinic acetylcholine receptor M4 (Rattus norvegicus) (UniProt P08485); assay: Positive allosteric modulation of rat M4 receptor expressed in CHO cells co-expressing Gqui5 by calcium mobilization assay relative to acetylcholine; type: functional, cell-based
T5 sequence (whole entry): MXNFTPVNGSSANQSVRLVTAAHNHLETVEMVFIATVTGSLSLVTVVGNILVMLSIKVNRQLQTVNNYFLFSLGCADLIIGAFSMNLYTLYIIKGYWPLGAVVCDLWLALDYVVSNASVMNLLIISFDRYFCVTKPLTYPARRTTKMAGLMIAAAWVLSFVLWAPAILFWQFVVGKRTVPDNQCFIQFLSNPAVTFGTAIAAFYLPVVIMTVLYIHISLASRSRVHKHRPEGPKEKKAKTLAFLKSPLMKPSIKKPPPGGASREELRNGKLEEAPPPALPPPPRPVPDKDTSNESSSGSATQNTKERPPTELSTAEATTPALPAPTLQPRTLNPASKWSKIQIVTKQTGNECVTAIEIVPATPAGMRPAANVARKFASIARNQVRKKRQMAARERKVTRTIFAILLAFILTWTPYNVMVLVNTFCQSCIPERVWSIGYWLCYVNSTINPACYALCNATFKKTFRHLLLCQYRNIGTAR

[11] = Ratio of total drug level in Sprague-Dawley rat brain to plasma at 0.20-0.25 mg/kg, iv at 0.25 hrs

Cytochrome P450 2D6, sequence (P10635 whole entry): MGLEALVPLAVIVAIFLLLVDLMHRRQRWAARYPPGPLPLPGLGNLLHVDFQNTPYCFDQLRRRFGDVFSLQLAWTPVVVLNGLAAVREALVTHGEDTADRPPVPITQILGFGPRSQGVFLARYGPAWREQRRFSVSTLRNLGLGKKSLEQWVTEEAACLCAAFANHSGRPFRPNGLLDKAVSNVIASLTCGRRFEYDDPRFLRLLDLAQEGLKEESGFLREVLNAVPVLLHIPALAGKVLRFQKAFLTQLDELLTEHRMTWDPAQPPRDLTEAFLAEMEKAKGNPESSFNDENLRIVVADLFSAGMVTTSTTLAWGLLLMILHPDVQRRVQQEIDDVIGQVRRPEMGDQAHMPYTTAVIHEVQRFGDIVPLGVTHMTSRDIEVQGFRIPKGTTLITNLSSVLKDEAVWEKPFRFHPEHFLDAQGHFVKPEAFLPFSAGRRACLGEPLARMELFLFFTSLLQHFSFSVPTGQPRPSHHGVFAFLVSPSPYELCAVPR

## Cc1nnc2sc(C(=O)NCc3ccc(S(=O)(=O)C(F)(F)F)cc3)c(N)c2c1C
Cytochrome P450 2D6
  pIC50: < 4.52
[1]
  K(p,uu,brain): 1.1
[2]
  pEC50: < 4.52
[3]
  t1/2: 5.7 h
[4]
  pEC50: < 4.52
[5]
  CLint scaled: 47.7 mL/min/kg
[6]
  pEC50: < 4.52
[7]
  Emax: 56.4%
[8]
  pEC50: < 4.52
Cytochrome P450 2C9
  pIC50: < 4.52
[9]
  Fu: 0.067
[10]
  Emax: 68.1%
[11]
  Kp: 0.49

## Cc1nnc2sc(C(=O)NCc3ccc(S(F)(F)(F)(F)F)cc3)c(N)c2c1C
Cytochrome P450 2D6
  pIC50: 4.62
[1]
  K(p,uu,brain): 0.75
[2]
  pEC50: < 4.52
[3]
  half-life: 3.6 h
[4]
  pEC50: < 4.52
[5]
  CLint scaled: 95.9 mL/min/kg
[6]
  pEC50: < 4.52
[7]
  Emax: 66.1%
[8]
  pEC50: < 4.52
Cytochrome P450 2C9
  pIC50: < 4.52
[9]
  fraction unbound: 0.004
[10]
  Emax: 75.7%
[11]
  Kp: 1

## Cc1nnc2sc(C(=O)NCc3ccc(S(=O)(=O)C(F)F)cc3)c(N)c2c1C
Cytochrome P450 2D6
  pIC50: 4.68
[1]
  K(p,uu,brain): 0.1
[2]
  pEC50: < 4.52
[3]
  half-life: 2.4 h
[4]
  pEC50: < 4.52
[5]
  CLint scaled: 48.1 mL/min/kg
[6]
  pEC50: < 4.52
[7]
  Emax: 72.8%
[8]
  pEC50: < 4.52
Cytochrome P450 2C9
  pIC50: < 4.52
[9]
  fraction unbound: 0.062
[10]
  Emax: 65.2%
[11]
  Kp: 0.11
